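48-hour exposure; five concentrations; linearly interpolated endpoints. GI50 marks 50% less growth.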 Activity calls are given as the source filed them. No stated cut-off is given here; in the data, active = GI50 up to about 1.1 µM and inactive = higher.
Columns and labels:
Assay in all cases: NCI anticancer screen, dose series, 48 h
SF-539 = tested on: SF-539
NCI/ADR-RES = tested on: NCI/ADR-RES
M14 = tested on: M14
T47D = tested on: T47D
TK-10 = tested on: TK-10
MDA-N = tested on: MDA-N
SR = tested on: SR
SN12C = tested on: SN12C
HCT-116 = tested on: HCT-116
IGROV-1 = tested on: IGROV-1
NCI-H460 = tested on: NCI-H460
KM12 = tested on: KM12
LOX IMVI = tested on: LOX IMVI
HT-29 = tested on: HT-29
COLO 205 = tested on: COLO 205
RPMI-8226 = tested on: RPMI-8226
HOP-62 = tested on: HOP-62
OVCAR-5 = tested on: OVCAR-5
SF-268 = tested on: SF-268
786-0 = tested on: 786-0

Compound | GI50 (SF-539) | GI50 (NCI/ADR-RES) | GI50 (M14) | GI50 (T47D) | GI50 (TK-10) | GI50 (MDA-N) | GI50 (SR) | GI50 (SN12C) | GI50 (HCT-116) | GI50 (IGROV-1) | GI50 (NCI-H460) | GI50 (KM12) | GI50 (LOX IMVI) | GI50 (HT-29) | GI50 (COLO 205) | GI50 (RPMI-8226) | GI50 (HOP-62) | GI50 (OVCAR-5) | GI50 (SF-268) | GI50 (786-0)
O=c1[nH]c2cc(C(F)(F)F)ccc2nc1CBr | 8.41 µM (inactive) | 17.4 µM (inactive) | 8.3 µM (inactive) | 16 µM (inactive) | 13.9 µM (inactive) | 12 µM (inactive) | 4.85 µM (inactive) | 9.31 µM (inactive) | 13.5 µM (inactive) | 10.6 µM (inactive) | 13.9 µM (inactive) | 14.9 µM (inactive) | 1.82 µM (inactive) | 11.4 µM (inactive) | 8.02 µM (inactive) | 5.97 µM (inactive) | 8.05 µM (inactive) | 14.1 µM (inactive) | 21.3 µM (inactive) | 6.62 µM (inactive)
FC(F)(F)c1ccccc1C1SCC2=Nc3ccccc3CN21 (stereo not given) | 10.8 µM (inactive) | 18.3 µM (inactive) | 12.2 µM (inactive) | 16.8 µM (inactive) | 14.4 µM (inactive) | 29.5 µM (inactive) | 21.2 µM (inactive) | 27 µM (inactive) | 11.1 µM (inactive) | 16.1 µM (inactive) | 15.7 µM (inactive) | 12.9 µM (inactive) | 15.1 µM (inactive) | 16.4 µM (inactive) | 12.5 µM (inactive) | 24.8 µM (inactive) | 11.1 µM (inactive) | 12 µM (inactive) | 15.1 µM (inactive) | 11.9 µM (inactive)
COc1cc2c(c(O)c1OC)CC1CCC(=O)N1C2c1cccc2ccccc12 (stereo not given) | 16.1 µM (inactive) | 19.4 µM (inactive) | 17.4 µM (inactive) | 18.9 µM (inactive) | 39.4 µM (inactive) | 16.3 µM (inactive) | > 100 µM (inactive) | 16.9 µM (inactive) | 20.4 µM (inactive) | 24 µM (inactive) | 22.9 µM (inactive) | 23.9 µM (inactive) | 23 µM (inactive) | 18.2 µM (inactive) | 15.6 µM (inactive) | 19.3 µM (inactive) | 20.8 µM (inactive) | 19.1 µM (inactive) | 25.1 µM (inactive) | 30.3 µM (inactive)
Clc1ccc(-c2ccc(-c3nn4c(CNc5ccccc5)nnc4s3)o2)c(Cl)c1 | 22.5 µM (inactive) | 81.7 µM (inactive) | 93.3 µM (inactive) | 13.5 µM (inactive) | > 100 µM (inactive) | 45.1 µM (inactive) | 27.5 µM (inactive) | > 100 µM (inactive) | 43.6 µM (inactive) | 22.8 µM (inactive) | 85.9 µM (inactive) | 60 µM (inactive) | > 100 µM (inactive) | 40.1 µM (inactive) | 28 µM (inactive) | 36.6 µM (inactive) | > 100 µM (inactive) | > 100 µM (inactive) | > 100 µM (inactive) | > 100 µM (inactive)
COc1cc(N(CCC#N)CCC#N)ccc1/C=C1\SC(=S)NC1=O | > 100 µM (inactive) | > 100 µM (inactive) | > 100 µM (inactive) | > 100 µM (inactive) | > 100 µM (inactive) | > 100 µM (inactive) | > 100 µM (inactive) | > 100 µM (inactive) | > 100 µM (inactive) | > 100 µM (inactive) | > 100 µM (inactive) | > 100 µM (inactive) | > 100 µM (inactive) | > 100 µM (inactive) | > 100 µM (inactive) | > 100 µM (inactive) | > 100 µM (inactive) | > 100 µM (inactive) | > 100 µM (inactive) | > 100 µM (inactive)
C=C1CC(COc2ccc3c(C)c(C)c(=O)oc3c2C)(c2ccccc2)OC1=O (stereo not given) | 2.02 µM (inactive) | 2.7 µM (inactive) | 1.57 µM (inactive) | 2.07 µM (inactive) | 1.45 µM (inactive) | 1.87 µM (inactive) | 1.46 µM (inactive) | 3.39 µM (inactive) | 1.41 µM (inactive) | 1.73 µM (inactive) | 6.01 µM (inactive) | 2.86 µM (inactive) | 1 µM (active) | 1.53 µM (inactive) | 1.6 µM (inactive) | 0.486 µM (active) | 6.22 µM (inactive) | 9.02 µM (inactive) | 2.64 µM (inactive) | 1.41 µM (inactive)
Cn1cnc([N+](=O)[O-])c1Sc1nc(N)nc2c1ncn2C1OC(CO)C(O)C1O (stereo not given) | 2.9 µM (inactive) | 0.182 µM (active) | 2.28 µM (inactive) | 5.38 µM (inactive) | 6.76 µM (inactive) | 2.73 µM (inactive) | 1.53 µM (inactive) | 7.11 µM (inactive) | 3.85 µM (inactive) | 12.7 µM (inactive) | 1.69 µM (inactive) | 5.51 µM (inactive) | 1.09 µM (active) | 6.27 µM (inactive) | 7.83 µM (inactive) | 2.98 µM (inactive) | 1.44 µM (inactive) | 1.88 µM (inactive) | 4.44 µM (inactive) | 3.14 µM (inactive)
CC(=O)C1=C(C)O[C@@H]2O[C@H](COCc3ccccc3)[C@@H](OCc3ccccc3)[C@H](O)[C@@H]2S1 | 20 µM (inactive) | 16.3 µM (inactive) | 20.4 µM (inactive) | 5.9 µM (inactive) | 19.1 µM (inactive) | 22.6 µM (inactive) | 22 µM (inactive) | 19.2 µM (inactive) | 16.4 µM (inactive) | 21.1 µM (inactive) | 17.5 µM (inactive) | 19.6 µM (inactive) | 21 µM (inactive) | 19.6 µM (inactive) | 22.2 µM (inactive) | 17.2 µM (inactive) | 19.5 µM (inactive) | 24.8 µM (inactive) | 15.2 µM (inactive) | 25.1 µM (inactive)
COc1ccc(S(=O)(=O)O)cc1NS(=O)(=O)c1ccc(C)cc1 | > 100 µM (inactive) | > 100 µM (inactive) | > 100 µM (inactive) | > 100 µM (inactive) | > 100 µM (inactive) | > 100 µM (inactive) | > 100 µM (inactive) | > 100 µM (inactive) | > 100 µM (inactive) | > 100 µM (inactive) | > 100 µM (inactive) | > 100 µM (inactive) | > 100 µM (inactive) | > 100 µM (inactive) | > 100 µM (inactive) | > 100 µM (inactive) | > 100 µM (inactive) | > 100 µM (inactive) | > 100 µM (inactive) | > 100 µM (inactive)
CNC(=O)Nc1ccccc1 | > 100 µM (inactive) | > 100 µM (inactive) | > 100 µM (inactive) | > 100 µM (inactive) | > 100 µM (inactive) | > 100 µM (inactive) | > 100 µM (inactive) | > 100 µM (inactive) | > 100 µM (inactive) | > 100 µM (inactive) | > 100 µM (inactive) | > 100 µM (inactive) | > 100 µM (inactive) | > 100 µM (inactive) | > 100 µM (inactive) | > 100 µM (inactive) | > 100 µM (inactive) | > 100 µM (inactive) | > 100 µM (inactive) | > 100 µM (inactive)
Cc1ccc(/C=C/C(=O)c2c([O-])on[n+]2-c2ccccc2)cc1 | 3.28 µM (inactive) | 2.4 µM (inactive) | 2.34 µM (inactive) | 2.84 µM (inactive) | 2.95 µM (inactive) | 2.92 µM (inactive) | 2.9 µM (inactive) | 3.79 µM (inactive) | 1.84 µM (inactive) | 2.73 µM (inactive) | 2.44 µM (inactive) | 2.39 µM (inactive) | 1.88 µM (inactive) | 1.9 µM (inactive) | 2.69 µM (inactive) | 2.57 µM (inactive) | 5.28 µM (inactive) | 4.17 µM (inactive) | 4.35 µM (inactive) | 1.83 µM (inactive)
O=[N+]([O-])c1ccc2nc(Cl)n[n+]([O-])c2c1 | 11.7 µM (inactive) | 24.3 µM (inactive) | 14.3 µM (inactive) | 16.8 µM (inactive) | 16.8 µM (inactive) | 11.6 µM (inactive) | 2.2 µM (inactive) | 16.1 µM (inactive) | 12.7 µM (inactive) | 10.3 µM (inactive) | 20.3 µM (inactive) | 23.2 µM (inactive) | 1.8 µM (inactive) | 11.7 µM (inactive) | 9.04 µM (inactive) | 2.89 µM (inactive) | 17.1 µM (inactive) | 17 µM (inactive) | 14.1 µM (inactive) | 8.3 µM (inactive)
C/C(=N\O)c1ccc(Nc2nc3ccccc3c3occc23)cc1 | 6.68 µM (inactive) | 6.76 µM (inactive) | 4.86 µM (inactive) | 5.45 µM (inactive) | 2.9 µM (inactive) | 11.8 µM (inactive) | 2.37 µM (inactive) | 13.1 µM (inactive) | 4.89 µM (inactive) | 7.01 µM (inactive) | 1.82 µM (inactive) | 3.77 µM (inactive) | 4.23 µM (inactive) | 1.15 µM (inactive) | 4.66 µM (inactive) | 2.58 µM (inactive) | 11.3 µM (inactive) | 8.3 µM (inactive) | 6.31 µM (inactive) | 3.8 µM (inactive)
COc1cc(C2c3cc4c(cc3OC(N3CCNCC3)C2C)OCO4)cc(OC)c1OC (stereo not given) | 0.344 µM (active) | 0.597 µM (active) | 0.873 µM (active) | 0.979 µM (active) | 20.7 µM (inactive) | 0.253 µM (active) | 0.441 µM (active) | 2.59 µM (inactive) | 0.56 µM (active) | 1.17 µM (inactive) | 0.94 µM (active) | 0.441 µM (active) | 0.871 µM (active) | 0.387 µM (active) | 0.416 µM (active) | 0.804 µM (active) | 1.13 µM (inactive) | 5.13 µM (inactive) | 0.836 µM (active) | 0.746 µM (active)

— ChEMBL document CHEMBL1201862, “PubChem BioAssay data set” (2004)
